How the values were obtained:
Experiment in all cases: relative viability (nuclei count vs DMSO), 5 days (fraction); higher = more cells survive
VE-821 + Crizotinib = compound: CS(=O)(=O)c1ccc(-c2cnc(N)c(C(=O)Nc3ccccc3)n2)cc1 [VE-821] + C[C@@H](Oc1cc(-c2cnn(C3CCNCC3)c2)cnc1N)c1c(Cl)ccc(F)c1Cl [Crizotinib] (partner 1 µM)
Method in brief: (§1)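 Relative viability divides the nuclei count in treated wells by that in vehicle wells. Lung cancer cell lines were seeded in 1536-well plates, dosed by pin tool the next day, and fixed and stained after 5 days in one step with final 0.05% Triton X-100, 1% formaldehyde and 1 ug/ml Hoechst. Dosing was a single drug or a fixed anchor-drug dose plus five library-drug doses (not always all listed) in √10 steps, and values are medians of duplicate plates imaged at 4×.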

Vismodegib + Palbociclib = compound: CS(=O)(=O)c1ccc(C(=O)Nc2ccc(Cl)c(-c3ccccn3)c2)c(Cl)c1 [Vismodegib] + CC(=O)c1c(C)c2cnc(Nc3ccc(N4CCNCC4)cn3)nc2n(C2CCCC2)c1=O [Palbociclib] (partner 0.5 µM)
Method in brief: as §1

Ruxolitinib + Vorinostat = compound: N#CC[C@H](C1CCCC1)n1cc(-c2ncnc3[nH]ccc23)cn1 [Ruxolitinib] + O=C(CCCCCCC(=O)Nc1ccccc1)NO [Vorinostat] (partner 1 µM)
Method in brief: as §1

| Cell Line | relative viability (VE-821 + Crizotinib; first compound 0.08 µM) | relative viability (VE-821 + Crizotinib; first compound 0.253 µM) | relative viability (VE-821 + Crizotinib; first compound 0.8 µM) | relative viability (VE-821 + Crizotinib; first compound 2.53 µM) | relative viability (VE-821 + Crizotinib; first compound 8 µM) | relative viability (Vismodegib + Palbociclib; first compound 0.08 µM) | relative viability (Vismodegib + Palbociclib; first compound 0.253 µM) | relative viability (Vismodegib + Palbociclib; first compound 0.8 µM) | relative viability (Vismodegib + Palbociclib; first compound 2.53 µM) | relative viability (Vismodegib + Palbociclib; first compound 8 µM) | relative viability (Ruxolitinib + Vorinostat; first compound 0.08 µM) | relative viability (Ruxolitinib + Vorinostat; first compound 0.253 µM) | relative viability (Ruxolitinib + Vorinostat; first compound 0.8 µM) | relative viability (Ruxolitinib + Vorinostat; first compound 2.53 µM) | relative viability (Ruxolitinib + Vorinostat; first compound 8 µM) |
| --- | --- | --- | --- | --- | --- | --- | --- | --- | --- | --- | --- | --- | --- | --- | --- |
| NCI-H1437 | 1.1 | 0.906 | 0.864 | 1.01 | 0.823 | 0.305 | 0.303 | 0.309 | 0.311 | 0.325 | 1.14 | 1.04 | 1.1 | 0.859 | 0.627 |
| HOP-62 | 0.955 | 0.885 | 0.754 | 1.03 | 0.902 | 0.4 | 0.411 | 0.425 | 0.46 | 0.39 | 0.606 | 0.59 | 0.688 | 0.594 | 0.685 |
| NCI-H2405 | 1.01 | 0.81 | 0.776 | 0.924 | 0.788 | 0.527 | 0.493 | 0.498 | 0.515 | 0.571 | 1 | 0.957 | 1.05 | 1.19 | 0.743 |
| SK-MES-1 | 1.07 | 0.93 | 0.924 | 0.95 | 0.896 | 0.289 | 0.306 | 0.349 | 0.351 | 0.364 | 1.19 | 1.07 | 1.01 | 0.968 | 0.949 |
| LC-2-ad | 0.516 | 0.424 | 0.526 | 0.518 | 0.499 | 0.477 | 0.501 | 0.482 | 0.479 | 0.544 | 0.798 | 0.715 | 0.728 | 0.698 | 0.64 |
